Assay results reported in PMC7767381, “Exploring the Anti-Cancer Mechanism of Novel 3,4′-Substituted Diaryl Guanidinium Derivatives” (Pharmaceuticals, 2020).

System: MCF10A cells
Assay: alamarBlue toxicity in non-tumorigenic MCF10A cells
Assay type: cell-based, human
Description: Considering the promising cytotoxicity results obtained with the cancer cell lines, we also evaluated the potential toxicity of the most efficient derivative (compound 4) in the non-cancerous cell line MCF10A (human mammary epithelial cell line).
Cells were counted and seeded in 96-well plates at a density of 2 × 10^5 cells/mL for HL-60, 2.5 × 10^4 cells/mL for MCF-7, MCF10A and HeLa, 1 × 10^5 cells/mL for HCT116 and HKH-2, all of them in their respective media. The 96-well plates were then treated with a 1:100 dilution of stock concentrations of drugs or EtOH (1% v/v)/DMSO (0.1% v/v) as vehicle control in triplicate. Three blank wells containing 200 µL RPMI with no cells were also set-up as blanks. […] The plates were incubated in darkness at 37 °C for 4–5 h using a Molecular Devices microplate reader, the fluorescence (F) was then read at an excitation wavelength of 544 nm and an emission wavelength of 590 nm. Cell viability was then determined by subtracting the mean blank fluorescence (Fb) from the treated sample fluorescence (Fs) and expressing this as a percentage of the fluorescence of the blanked vehicle control (Fc). […] The results were then plotted as a nonlinear regression, sigmoidal dose-response curves on Prism, from which the IC50 value for each drug was determined. […]
Figure S11. Scatter correlation found between the calculated logP and the HL -60 cytotoxic […]

Which “toxicity towards MCF10A” value (100 μM) does the source give for Cl.N=C(N)Nc1ccc(Oc2cccc(Nc3ccc(Cl)c(C(F)(F)F)c3)c2)cn1 [Compound 4, 1-(5-(3-((4-Chloro-3-(trifluoromethyl)phenyl)amino)phenoxy)pyridin-2-yl)guanidine hydrochloride] here?
Its value is “shows toxicity”.

What about the “effect on MCF10A cell viability” value (10 and 1 μM) of the same compound?
Its value is “does not appear to affect in any way cell viability”.
